Measured values published in PMC11798738, “Targeting ASK1 by CS17919 alleviates kidney‐ and liver‐related diseases in murine models” (Animal Models and Experimental Medicine, 2024).

Legend:
CYP 2D6 = CYP 2D6 (Homo sapiens, UniProt P10635); experiment: CYP inhibition in vitro; format: in vitro ADME
CYP 2C19 = CYP 2C19 (Homo sapiens, UniProt P33261); experiment: CYP inhibition in vitro; format: in vitro ADME
CCC‐HEL‐1 = experiment: MTS cytotoxicity assay, CCC-HEL-1; format: cell-based, human; conditions: 72 h
Experimental: Human embryonic kidney cells (HEK‐293A), human hepatocellular carcinoma cells (HUH7), human embryonic liver diploid cells (CCC‐HEL‐1) and human embryonic lung cells (MRC‐5) were selected for the cytotoxicity study of both drugs, using the MTS assay protocol. Cells were cultured at 37°C with 5% CO2 using an appropriate medium. […] After 72 h of incubation, 30 μL of MTS solution was added to each well, and the cells were then incubated for 2–4 h in the dark. The absorbance value of each well at 490 nm was measured using an enzymatic plate reader and the IC50 for each drug and each cell line was calculated. Cell viability and cytoxicity experiments were repeated three times.

CYP 2C8 = CYP 2C8 (Homo sapiens, UniProt P10632); experiment: CYP inhibition in vitro; format: in vitro ADME
CYP 1A2 = CYP 1A2 (Homo sapiens, UniProt P05177)
CYP3A4 = CYP3A4 (Homo sapiens, UniProt P08684)
HEK‐293A = experiment: MTS cytotoxicity assay, HEK-293A; format: cell-based, human; conditions: 72 h
Experimental: Human embryonic kidney cells (HEK‐293A), human hepatocellular carcinoma cells (HUH7), human embryonic liver diploid cells (CCC‐HEL‐1) and human embryonic lung cells (MRC‐5) were selected for the cytotoxicity study of both drugs, using the MTS assay protocol. Cells were cultured at 37°C with 5% CO2 using an appropriate medium. For the assay, the cells were evenly distributed at 1E4 cells/well in 96‐well plates, and then CS17919 or GS‐4997 was added to the plates in a dose‐dependent manner (3‐fold dilution from 100 μmol/L). After 72 h of incubation, 30 μL of MTS solution was added to each well, and the cells were then incubated for 2–4 h in the dark. The absorbance value of each well at 490 nm was measured using an enzymatic plate reader and the IC50 for each drug and each cell line was calculated. Cell viability and cytoxicity experiments were repeated three times.

L02 cells = experiment: Cell protection in PA-stimulated L02 cells (Cell Titer-Glo viability); format: cell-based, human; conditions: 50 μmol/L PA, 72 h
Experimental: L02 cells were cultured in DMEM medium (Gibco, 11 965 092, Carlsbad, CA, USA) supplemented with 20% FBS and 1× penicillin–streptomycin. L02 cells were inoculated in two 96‐well plates at 1E4 cells/well (200 μL). The following day, the cells were stimulated with 50 μmol/L PA (dissolved in ethanol to make a 200× stock solution and then added to the medium) and simultaneously incubated with different concentrations of CS17919 and GS‐4997 (CS17919 and GS‐4997 stock solutions were added to the well plates to reach a final concentration of 10–0.3 μmol/L). After 72 h of incubation, the original medium was removed, followed by the addition of 100 μL of new DMEM medium and 60 μL of Cell Titer‐Glo reagent per well. The cells were incubated for 5 min in the dark, and then transferred to a black permeable plate for detection using an enzyme plate reader (Tecan spark, Grödig, Austria).

[1] = Metabolic stability in liver microsomes; format: in vitro ADME; conditions: Mouse
[2] = Tissue distribution in mice, oral; format: in vivo, C57BL/6J mice; conditions: 20 mg/kg gavage
Experimental: Male C57BL/6J mice at 6–8 weeks (Beijing Huafukang Biotechnology Co., Ltd) were also selected for tissue distribution studies. Mice were gavage‐administered at 20 mg/kg and anesthetized at 1, 2, 4, and 8 h after administration for tissue collection, including whole blood, heart, liver, kidney, and brain. These organs were homogenized using a tissue homogenizer and analyzed together with the plasma according to the standard LC/MS procedure.

UUO mouse model = UUO mouse model of kidney injury and fibrosis; format: in vivo, C57BL/6J mice
Experimental: 55 C57BL/6J mice, male, 6–8 weeks old were purchased from Chengdu Pharmachem Biotechnology Co. (Chengdu, China) and randomly divided into 5 groups according to their body weight: Sham (n = 10), Model (n = 15), CS17919L (10 mg/kg, n = 10), CS17919H (60 mg/kg, n = 10), and GS‐4997 (30 mg/kg, n = 10). The mice were anesthetized and fixed on the operating table, and the abdominal cortex and muscles were cut in the middle of the right side of the abdomen, and the ureter was searched for along the renal hilum. The ureter was separated using a glass split‐needle and ligated at the opening of the renal pelvis and the upper 1/3 of the ureter, and the ureter was cut between the two ligatures. Finally, the muscle and skin were closed with consecutive sutures, and animals were kept under observation until they awoke. Both the Sham and the Model group received solvent (0.2% CMC‐Na + 0.1% Tween‐80) orally twice daily. CS17919 and GS‐4997 were administered by gavage twice daily at the corresponding doses for 11 days. All treatments were started one day before surgical operation. All mice were sacrificed one day after administration with overnight fasting. Blood was collected, and serum was isolated for the analysis of urea nitrogen and creatinine. The kidney of each mouse was removed, weighed and fixed in 10% formalin solution for pathological study.
Masson staining was applied to determine kidney fibrosis in the UUO model. Thin 4 μm paraffin sections of each sample were used in this study, which followed the standard procedure. The sections were stained with Hematoxylin staining solution for 5–10 min and then washed, followed by staining with Ponceau S‐acid fuchsin stain for around 5–10 min. The sections were treated with 1% phosphomolybdic acid and Aniline Blue solution, and finally dehydrated stepwise in alcohol and sealed. VIS7.0 software was used to analyze the area of kidney fibrosis and the percentage of the fibrosis area in the scanning area was calculated.

NASH mouse model = experiment: CCL4- and HFD-induced NASH mouse model; format: in vivo, C57BL/6J mice; conditions: data not shown; model group 5/9
[3] = CS17919 10 and 60 mg/kg, GS-4997 30 mg/kg, gavage twice daily, 11 days

CYP 2D6, sequence (P10635 whole entry): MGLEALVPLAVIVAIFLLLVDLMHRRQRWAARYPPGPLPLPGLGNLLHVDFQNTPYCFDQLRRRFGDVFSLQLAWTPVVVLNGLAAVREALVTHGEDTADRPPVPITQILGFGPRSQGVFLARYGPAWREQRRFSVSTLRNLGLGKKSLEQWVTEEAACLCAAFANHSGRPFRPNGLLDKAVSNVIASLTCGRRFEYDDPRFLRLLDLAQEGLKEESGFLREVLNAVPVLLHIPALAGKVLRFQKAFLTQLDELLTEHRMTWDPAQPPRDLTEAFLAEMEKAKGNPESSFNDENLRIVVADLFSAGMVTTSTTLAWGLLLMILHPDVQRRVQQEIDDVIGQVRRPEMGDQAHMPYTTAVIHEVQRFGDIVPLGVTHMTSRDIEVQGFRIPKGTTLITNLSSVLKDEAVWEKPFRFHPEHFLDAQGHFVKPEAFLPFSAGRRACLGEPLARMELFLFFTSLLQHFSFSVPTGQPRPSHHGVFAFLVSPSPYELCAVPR
CYP 2C8, sequence (P10632 whole entry): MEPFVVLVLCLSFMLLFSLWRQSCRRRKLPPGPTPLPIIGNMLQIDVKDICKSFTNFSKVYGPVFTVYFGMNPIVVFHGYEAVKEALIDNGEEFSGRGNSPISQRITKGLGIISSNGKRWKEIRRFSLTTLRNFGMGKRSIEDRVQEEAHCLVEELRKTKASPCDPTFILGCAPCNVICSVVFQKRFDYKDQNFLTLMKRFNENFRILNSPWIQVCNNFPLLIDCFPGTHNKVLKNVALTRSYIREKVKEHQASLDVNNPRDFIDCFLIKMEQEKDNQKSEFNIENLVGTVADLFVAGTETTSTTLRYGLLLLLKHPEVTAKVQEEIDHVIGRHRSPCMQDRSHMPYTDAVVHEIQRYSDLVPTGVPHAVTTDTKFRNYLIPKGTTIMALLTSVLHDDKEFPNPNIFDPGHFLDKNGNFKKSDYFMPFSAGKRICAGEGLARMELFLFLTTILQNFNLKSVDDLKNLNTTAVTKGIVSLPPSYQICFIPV
CYP3A4, sequence (P08684 whole entry): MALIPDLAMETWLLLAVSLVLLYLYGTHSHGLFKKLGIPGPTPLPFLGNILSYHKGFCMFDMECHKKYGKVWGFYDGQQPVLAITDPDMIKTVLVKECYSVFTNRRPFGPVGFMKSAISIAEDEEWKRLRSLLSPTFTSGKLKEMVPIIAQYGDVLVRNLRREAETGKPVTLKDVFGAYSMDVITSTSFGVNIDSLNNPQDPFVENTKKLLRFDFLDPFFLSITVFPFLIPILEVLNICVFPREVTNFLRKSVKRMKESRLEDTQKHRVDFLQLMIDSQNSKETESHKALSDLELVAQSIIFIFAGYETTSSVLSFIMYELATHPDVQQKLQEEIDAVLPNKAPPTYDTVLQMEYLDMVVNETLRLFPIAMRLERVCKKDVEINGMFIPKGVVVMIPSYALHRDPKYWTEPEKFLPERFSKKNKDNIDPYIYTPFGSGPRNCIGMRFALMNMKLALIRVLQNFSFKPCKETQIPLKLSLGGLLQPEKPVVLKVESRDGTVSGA
CYP 1A2, sequence (P05177 whole entry): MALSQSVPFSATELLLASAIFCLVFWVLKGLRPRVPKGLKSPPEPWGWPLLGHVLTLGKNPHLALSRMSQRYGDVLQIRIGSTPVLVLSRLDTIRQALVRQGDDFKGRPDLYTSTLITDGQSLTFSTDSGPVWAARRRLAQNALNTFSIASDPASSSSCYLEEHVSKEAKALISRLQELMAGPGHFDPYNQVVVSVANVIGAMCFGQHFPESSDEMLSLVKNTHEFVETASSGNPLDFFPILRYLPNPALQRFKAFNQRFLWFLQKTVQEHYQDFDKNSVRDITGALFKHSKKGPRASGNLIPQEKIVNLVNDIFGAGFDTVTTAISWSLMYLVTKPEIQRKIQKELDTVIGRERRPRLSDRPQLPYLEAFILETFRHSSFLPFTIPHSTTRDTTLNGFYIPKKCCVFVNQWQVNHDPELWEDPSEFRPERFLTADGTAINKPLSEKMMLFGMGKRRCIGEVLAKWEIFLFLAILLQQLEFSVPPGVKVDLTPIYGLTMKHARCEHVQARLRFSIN
CYP 2C19, sequence (P33261 whole entry): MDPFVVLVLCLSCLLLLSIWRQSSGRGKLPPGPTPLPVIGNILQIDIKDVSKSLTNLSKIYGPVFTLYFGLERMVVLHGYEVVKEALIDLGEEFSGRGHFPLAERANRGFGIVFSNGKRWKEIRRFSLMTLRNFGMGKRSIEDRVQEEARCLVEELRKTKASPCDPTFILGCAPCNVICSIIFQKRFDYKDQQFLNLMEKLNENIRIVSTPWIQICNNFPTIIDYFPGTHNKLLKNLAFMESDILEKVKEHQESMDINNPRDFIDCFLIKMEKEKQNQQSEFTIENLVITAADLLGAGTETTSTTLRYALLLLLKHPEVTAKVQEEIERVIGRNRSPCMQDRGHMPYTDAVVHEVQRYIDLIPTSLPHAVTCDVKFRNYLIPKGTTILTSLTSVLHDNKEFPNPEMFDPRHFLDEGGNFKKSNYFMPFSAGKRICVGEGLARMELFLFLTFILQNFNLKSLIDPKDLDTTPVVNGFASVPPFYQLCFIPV

Cc1cc(F)c(C(=O)Nc2cccc(-c3nncn3[C@H](C)C(F)(F)F)n2)cc1NC(=O)C1CC1 [CS17919]
IC50 (CYP 2D6): > 10 µM | IC50 (CYP 2C19): > 10 µM | Cytotoxicity (cell viability) (CCC‐HEL‐1): barely affected cell viability | IC50 (CYP 2C8): > 10 µM | IC50 (CYP 1A2): > 10 µM | IC50 (CYP3A4): > 10 µM | Cytotoxicity (cell viability) (HEK‐293A): barely affected cell viability | Cell protection (cell viability normalized to PA-treated cells) (L02 cells; 0.32–10 μmol/L drug): significantly prevented apoptosis at all doses | Cell viability at high drug doses (L02 cells; 5 and 10 μmol/L drug): mild protective effect | T1/2 in liver microsomes [1]: >145 min | Tissue accumulation [2]: tissue‐specific accumulation of CS17919 in the liver and kidney | Brain concentration ([2]; 1 h, mean ± SD, n = 3): 30.42 ± 6.82 ng/g | Heart concentration ([2]; 1 h, mean ± SD, n = 3): 1330.94 ± 384.66 ng/g | Kidney concentration ([2]; 1 h, mean ± SD, n = 3): 4353.18 ± 260.20 ng/g | Liver concentration ([2]; 1 h, mean ± SD, n = 3): 8933.89 ± 456.44 ng/g | Plasma concentration ([2]; 1 h, mean ± SD, n = 3): 3104.56 ± 474.21 ng/mL | Brain concentration ([2]; 2 h, mean ± SD, n = 3): 7.37 ± 1.98 ng/g | Heart concentration ([2]; 2 h, mean ± SD, n = 3): 918.02 ± 156.73 ng/g | Kidney concentration ([2]; 2 h, mean ± SD, n = 3): 2751.58 ± 252.41 ng/g | Liver concentration ([2]; 2 h, mean ± SD, n = 3): 5322.41 ± 114.54 ng/g | Plasma concentration ([2]; 2 h, mean ± SD, n = 3): 2737.71 ± 208.45 ng/mL | Brain concentration ([2]; 4 h, mean ± SD, n = 3): 8.28 ± 4.78 ng/g | Heart concentration ([2]; 4 h, mean ± SD, n = 3): 338.03 ± 97.76 ng/g | Kidney concentration ([2]; 4 h, mean ± SD, n = 3): 1173.69 ± 135.53 ng/g | Liver concentration ([2]; 4 h, mean ± SD, n = 3): 2371.88 ± 421.50 ng/g | Plasma concentration ([2]; 4 h, mean ± SD, n = 3): 1444.51 ± 155.53 ng/mL | Heart concentration ([2]; 8 h, mean ± SD, n = 3): 256.60 ± 117.57 ng/g | Kidney concentration ([2]; 8 h, mean ± SD, n = 3): 993.13 ± 136.67 ng/g | Liver concentration ([2]; 8 h, mean ± SD, n = 3): 1939.43 ± 337.32 ng/g | Plasma concentration ([2]; 8 h, mean ± SD, n = 3): 856.1 ± 332.34 ng/mL | Brain concentration ([2]; 8 h, LLOQ 1 ng/g): LLOQ (<1) ng/g | Area of kidney fibrosis (Masson staining) (UUO mouse model; [3]): tendency to reduce | Serum creatinine vs model group (UUO mouse model; [3]): non‐significant tendency to decrease | Serum urea nitrogen vs model group (UUO mouse model; [3]): significantly reduced | Inflammatory infiltration and interstitial fibrosis scores (H&E) (UUO mouse model; CS17919 high-dose group (60 mg/kg twice daily, 11 days)): improved significantly | Occurrence of hepatocellular carcinoma (mice affected/group) (NASH mouse model): 3/8
